Holding throughout (format): cell-based, human
Test [1] relates to DLD1 cells. As to the kind of experiment: Invasion assay (Corning BioCoat Matrigel plates). The method, then: (§1) Cell viability and proliferation assays were carried out by means of XCELLigence technology (ACEA Biosciences, Inc.) following the manufacturer's indications. Migration and invasion assays were carried out in Corning® BioCoat™ Control plates (#354578) and Corning® BioCoat™ Matrigel plates (#354480), respectively, following the manufacturer's indications. For the rescue assays, the cells were treated for 72 hours with 30 μM apabetalone (RVX-208; Biovision). Antibodies: ABCA1 (Ab18180, Abcam. 1:500); caveolin-1 (Ab2910, Abcam. 1:1000); α-tubulin (T9026, Sigma 1:1000). The DLD1 cells correspond to a human colorectal cancer-derived adherent epithelial cell line (ATCC® CCL-221™). The stable cell lines capable of overexpressing ABCA1 were obtained by means of transduction with genetically modified lentivirus.
(§2) Following the same treatment regimen, the inventors carried out migration and invasion assays.
(§3) The same assays were repeated by replacing ApoA1 with a treatment with RVX-208. In this case, DLD1 cells were pre-treated for 72 hours before the start of the experiment with RVX-208 at a concentration of 30 μm and were subjected to a treatment with 15 μM of RVX-208 during the development of the experiments.
(§4) For the purpose of confirming that the effects of RVX-208 in cell phenotype recovery were due to the increase in ApoA-1 expression, the inventors inhibited the expression of said protein by means of transfection of a complementary small RNA, ShApoA1 (FIG. 9). Twenty-four hours after transfection with ShApoA1 expression vector, the inventors started treatment with 30 μM of RVX-208. Cell viability and proliferation in DLD1 cells (D_NoORF) and D1D1 cell lines expressing increased ApoA1 levels (D_ApoA1 ) were analyzed with the xCELLigence system.

Test [2] relates to DLD1 cells. As to the kind of experiment: Cell viability and proliferation assay (XCELLigence). The method, then: as §1, §2, §3, §4
Test [3] has as its system DLD1 cells overexpressing ABCA1. In words: Growth of Matrigel-embedded spheroids. As to conditions: treatment with Rvx-208; Matrigel-embedded spheroids from DLD1 cells overexpressing ABCA1. The source says: FIG. 8: A) Growth of spheroids derived from control cells and cells overexpressing ABCA1. The top panels correspond to the control treatment (carrier), the bottom panels correspond to treatment with Rvx-208. The growth curves represent the mean volume of a total of 30 spheroids per cell line. The inventors were able to confirm said results based on the treatment of DLD1 cells expressing ABCA1 with RVX-208 under the conditions already described in detail in Example 3. In this case, the DLD1 cells overexpressing ABCA1 were pre-treated for 72 hours before the start of the experiment with RVX-208 at a concentration of 30 μm and were subjected to a treatment with 15 μM of RVX-208 during the development of the experiments. […] The levels of caveolin-1, a protein whose increased levels have been associated with increases in cell migration and invasion, were also analyzed in this experiment.

Test [4] concerns caveolin-1. As to the kind of experiment: Caveolin-1 immunodetection by Western blot. As to conditions: RVX-208 (30 μM) versus DMSO carrier. The method, then:
FIG. 7. A) Proliferation curve in a viability assay carried out by means of XCELLigence technology. Growth of DLD1 cells treated with DMSO as the drug carrier and with Rvx-208 (30 μM). The significant differences existing in the slope of the graph, and therefore in the growth dynamics of the treated cells are shown in the right panel (****p-value<0.0001). B) Migration and invasion assays. The method followed was the same as the one described in FIG. 2 (*p-value=0.0407; ****p-value<0.0001). C) Expression levels of proteins E-cadherin and Vimentin in the presence and absence of Rvx-208. Analysis performed by means of quantitative PCR. The relative expression levels normalized with respect to the untreated control are shown. D) ABCA1, ApoA1, caveolin-1, and α-tubulin immunodetection by means of Western blot. α-tubulin acts as load control. The results of the cells treated with Rvx-208 (30 μM) or with the DMSO carrier are shown. E) Cholesterol flux in cells treated with Rvx-208. […]
(§5) The inventors were able to confirm said results based on the treatment of DLD1 cells expressing ABCA1 with RVX-208 under the conditions already described in detail in Example 3. […] The levels of caveolin-1, a protein whose increased levels have been associated with increases in cell migration and invasion, were also analyzed in this experiment.
In general terms: Immunoblotting shows a protein as a band on a membrane.

For test [5], the system named is ABCA1 cholesterol transporter. As to the kind of experiment: ABCA1 messenger RNA and protein level after treatment. As to conditions: treatment with Rvx-208 (30 μM); Western blot. The procedure:
FIG. 6. A) Proliferation curve in a viability assay carried out by means of XCELLigence technology. The results for the stable cell line overexpressing ABCA1 in the absence and presence of ApoA1 are shown. The cells were treated for 72 hours before the experiment with 40 μg/ml of ApoA1 and with a concentration of 20 μg/ml during acquisition. B) Migration and invasion assays. The method followed was the same as the one described in FIG. 1. (**p-value=0.003; ****p-value<0.0001). C) ABCA1 messenger RNA level (left panel) and ABCA1 protein level (right panel) in the presence and absence of treatment with ApoA1. Results are shown both for the control cells and for those cells overexpressing the transporter.
FIG. 7. A) Proliferation curve in a viability assay carried out by means of XCELLigence technology. Growth of DLD1 cells treated with DMSO as the drug carrier and with Rvx-208 (30 μM). The significant differences existing in the slope of the graph, and therefore in the growth dynamics of the treated cells are shown in the right panel (****p-value<0.0001). B) Migration and invasion assays. The method followed was the same as the one described in FIG. 2 (*p-value=0.0407; ****p-value<0.0001). C) Expression levels of proteins E-cadherin and Vimentin in the presence and absence of Rvx-208. Analysis performed by means of quantitative PCR. The relative expression levels normalized with respect to the untreated control are shown. D) ABCA1, ApoA1, caveolin-1, and α-tubulin immunodetection by means of Western blot. α-tubulin acts as load control. The results of the cells treated with Rvx-208 (30 μM) or with the DMSO carrier are shown. E) Cholesterol flux in cells treated with Rvx-208.
as §1, with “The stable cell lines capable of overexpressing ABCA1 were obtained by means of transduction with genetically modified lentivirus.” left out
as §5

Consider one molecule from patent US20200378993A1, “MEDICAL USES OF APOLIPOPROTEIN A AND ACTIVATORS THEREOF” (FUNDACIÓN IMDEA ALIMENTACIÓN, priority 2017, published 2020).

As for `COc1cc(OC)c2c(=O)[nH]c(-c3cc(C)c(OCCO)c(C)c3)nc2c1` [RVX-208, 2-(4-(2-hydroxyethoxy)-3,5-dimethylphenyl)-5,7-dimethoxyquinazolin-4(3H)-one], in test [1] (RVX-208 30 μm 72 hours then 15 μM, DLD1 cells), the invasive capacity result is “significant decreases the migratory and invasive capacity”. In addition, the “effectiveness of treatment in terms of a decrease in cell invasion capacities” value in test [1] (Rvx-208 with ApoA1 silenced by shApoA1, control cells) is “reduces the effectiveness of treatment”. Further, the proliferation indices result in test [2] (30 μM RVX-208, ApoA1 expression not inhibited (Scr+Rvx-208), DLD1 cells (D_NoORF)) is listed as “significantly lower”. In addition, the proliferative capacity entry in test [2] (RVX-208 pre-treatment 72 hours at 30 μm, 15 μM during experiment, DLD1 cells) was “significant decrease in proliferative capacity”. In test [3], the “growth of three-dimensional structures (spheroids)” value was “slows down the growth”. Further, the caveolin-1 protein levels entry in test [4] is recorded as “capable of reducing the levels of said protein”. In addition, the ABCA1 expression levels result in test [5] is listed as “reduces ABCA1 expression levels”.
